Data as given in ChEMBL document CHEMBL1132828, “Pharmacophore identification of a specific CXCR4 inhibitor, T140, leads to development of effective anti-HIV agents with very high selectivity indexes” (Bioorg Med Chem Lett, 2000).
Where a SMILES comes first, the peptide text is derived from it. Bridges are numbered along the chain shown (N, C = ends). [ ]: non-standard residue; d: D form. 2Nal = N[C@@H](Cc1ccc2ccccc2c1)C(=O)O; Cit = NC(=O)NCCC[C@H](N)C(=O)O

Assays:
[1] = Ratio of cytotoxic concentration (CC50) in test-II to that of EC50 of compound; format: functional, Homo sapiens
[2] = Ratio of cytotoxic concentration (CC50) in test-I to that of EC50 of compound; format: functional, Homo sapiens
MT4 [3] = assay: Compound was tested for reduction of the viability of mock infected MT-4 cell in test-II; format: functional; settings: Homo sapiens
MT4 [4] = assay: Compound was tested for reduction of the viability of mock infected MT-4 cell in test-I; format: functional; settings: Homo sapiens

## NCCCC[C@@H]1NC(=O)[C@H](CCCN=C(N)N)NC(=O)[C@H](Cc2ccc(O)cc2)NC(=O)[C@@H](NC(=O)[C@H](Cc2c[nH]c3ccccc23)NC(=O)[C@H](CCCN=C(N)N)NC(=O)[C@@H](N)CCCN=C(N)N)CSSC[C@@H](C(=O)N[C@@H](CCCN=C(N)N)C(=O)O)NC(=O)[C@H](CCCNC(N)=O)NC(=O)[C@H](CCCN=C(N)N)NC(=O)[C@H](Cc2ccc(O)cc2)NC(=O)[C@@H]2CCCN2C(=O)[C@@H](CCCCN)NC1=O
[1]
  Ratio: 23000
[2]
  Ratio: >>120
MT4 [3]
  CC50: 190 µM
MT4 [4]
  CC50: > 1 µM

## C[C@@H]1NC(=O)[C@H](CCCN=C(N)N)NC(=O)[C@H](Cc2ccc(O)cc2)NC(=O)[C@@H](NC(=O)[C@H](Cc2ccc3ccccc3c2)NC(=O)[C@H](CCCN=C(N)N)NC(=O)[C@@H](N)CCCN=C(N)N)CSSC[C@@H](C(=O)N[C@@H](CCCN=C(N)N)C(=O)O)NC(=O)[C@H](CCCNC(N)=O)NC(=O)[C@H](CCCN=C(N)N)NC(=O)[C@H](Cc2ccc(O)cc2)NC(=O)[C@@H]2CCCN2C(=O)[C@@H](CCCCN)NC1=O
[2]
  Ratio: >1800
MT4 [4]
  CC50: > 80 µM

## NCCCC[C@@H]1NC(=O)[C@H](CCCNC(N)=O)NC(=O)[C@H](Cc2ccc(O)cc2)NC(=O)[C@@H](NC(=O)[C@H](Cc2ccc3ccccc3c2)NC(=O)[C@H](CCCN=C(N)N)NC(=O)[C@@H](N)CCCN=C(N)N)CSSC[C@@H](C(=O)N[C@@H](CCCN=C(N)N)C(=O)O)NC(=O)[C@H](CCCNC(N)=O)NC(=O)[C@H](CCCN=C(N)N)NC(=O)[C@H](Cc2ccc(O)cc2)NC(=O)[C@@H]2CCCN2C(=O)[C@@H](CCCCN)NC1=O
[1]
  Ratio: 160000
[2]
  Ratio: >29000
MT4 [3]
  CC50: 310 µM
MT4 [4]
  CC50: > 80 µM

## NCCCC[C@@H]1NC(=O)[C@H](CCCN=C(N)N)NC(=O)[C@H](Cc2ccc(O)cc2)NC(=O)[C@@H](NC(=O)[C@H](Cc2ccc3ccccc3c2)NC(=O)[C@H](CCCNC(N)=O)NC(=O)[C@@H](N)CCCN=C(N)N)CSSC[C@@H](C(=O)N[C@@H](CCCN=C(N)N)C(=O)O)NC(=O)[C@H](CCCNC(N)=O)NC(=O)[C@H](CCCN=C(N)N)NC(=O)[C@H](Cc2ccc(O)cc2)NC(=O)[C@@H]2CCCN2C(=O)[C@@H](CCCCN)NC1=O
[1]
  Ratio: 570
[2]
  Ratio: >180
MT4 [3]
  CC50: 260 µM
MT4 [4]
  CC50: > 80 µM

## NCCCC[C@@H]1NC(=O)[C@H](CCCN=C(N)N)NC(=O)[C@H](Cc2ccc(O)cc2)NC(=O)[C@@H](NC(=O)[C@H](Cc2ccc3ccccc3c2)NC(=O)[C@H](CCCN=C(N)N)NC(=O)[C@@H](N)CCCN=C(N)N)CSSC[C@@H](C(=O)N[C@@H](CCCNC(N)=O)C(=O)O)NC(=O)[C@H](CCCNC(N)=O)NC(=O)[C@H](CCCN=C(N)N)NC(=O)[C@H](Cc2ccc(O)cc2)NC(=O)[C@@H]2CCCN2C(=O)[C@@H](CCCCN)NC1=O
[1]
  Ratio: 200
[2]
  Ratio: >220
MT4 [3]
  CC50: 180 µM
MT4 [4]
  CC50: > 40 µM

## C[C@H](NC(=O)[C@@H](N)CCCN=C(N)N)C(=O)N[C@@H](Cc1ccc2ccccc2c1)C(=O)N[C@H]1CSSC[C@@H](C(=O)N[C@@H](CCCN=C(N)N)C(=O)O)NC(=O)[C@H](CCCNC(N)=O)NC(=O)[C@H](CCCN=C(N)N)NC(=O)[C@H](Cc2ccc(O)cc2)NC(=O)[C@@H]2CCCN2C(=O)[C@@H](CCCCN)NC(=O)[C@H](CCCCN)NC(=O)[C@H](CCCN=C(N)N)NC(=O)[C@H](Cc2ccc(O)cc2)NC1=O
[2]
  Ratio: >64
MT4 [4]
  CC50: > 80 µM

## C[C@H](NC(=O)[C@H](CCCN=C(N)N)NC(=O)[C@@H](N)CCCN=C(N)N)C(=O)N[C@H]1CSSC[C@@H](C(=O)N[C@@H](CCCN=C(N)N)C(=O)O)NC(=O)[C@H](CCCNC(N)=O)NC(=O)[C@H](CCCN=C(N)N)NC(=O)[C@H](Cc2ccc(O)cc2)NC(=O)[C@@H]2CCCN2C(=O)[C@@H](CCCCN)NC(=O)[C@H](CCCCN)NC(=O)[C@H](CCCN=C(N)N)NC(=O)[C@H](Cc2ccc(O)cc2)NC1=O
[2]
  Ratio: >34
MT4 [4]
  CC50: > 80 µM

## C[C@@H]1NC(=O)[C@@H](NC(=O)[C@H](Cc2ccc3ccccc3c2)NC(=O)[C@H](CCCN=C(N)N)NC(=O)[C@@H](N)CCCN=C(N)N)CSSC[C@@H](C(=O)N[C@@H](CCCN=C(N)N)C(=O)O)NC(=O)[C@H](CCCNC(N)=O)NC(=O)[C@H](CCCN=C(N)N)NC(=O)[C@H](Cc2ccc(O)cc2)NC(=O)[C@@H]2CCCN2C(=O)[C@@H](CCCCN)NC(=O)[C@H](CCCCN)NC(=O)[C@H](CCCN=C(N)N)NC1=O
[2]
  Ratio: >230
MT4 [4]
  CC50: > 80 µM

## NCCCC[C@@H]1NC(=O)[C@H](CCCN=C(N)N)NC(=O)[C@H](Cc2ccc(O)cc2)NC(=O)[C@@H](NC(=O)[C@H](Cc2ccc3ccccc3c2)NC(=O)[C@H](CCCN=C(N)N)NC(=O)[C@@H](N)CCCNC(N)=O)CSSC[C@@H](C(=O)N[C@@H](CCCN=C(N)N)C(=O)O)NC(=O)[C@H](CCCNC(N)=O)NC(=O)[C@H](CCCN=C(N)N)NC(=O)[C@H](Cc2ccc(O)cc2)NC(=O)[C@@H]2CCCN2C(=O)[C@@H](CCCCN)NC1=O
[1]
  Ratio: 18000
[2]
  Ratio: >5300
MT4 [3]
  CC50: 280 µM
MT4 [4]
  CC50: > 80 µM

## NCCCC[C@@H]1NC(=O)[C@H](CCCN=C(N)N)NC(=O)[C@H](Cc2ccc(O)cc2)NC(=O)[C@@H](NC(=O)[C@H](Cc2ccc3ccccc3c2)NC(=O)[C@H](CCCN=C(N)N)NC(=O)[C@@H](N)CCCN=C(N)N)CSSC[C@@H](C(=O)N[C@@H](CCCN=C(N)N)C(=O)O)NC(=O)[C@H](CCCNC(N)=O)NC(=O)[C@H](CCCNC(N)=O)NC(=O)[C@H](Cc2ccc(O)cc2)NC(=O)[C@@H]2CCCN2C(=O)[C@@H](CCCCN)NC1=O
[1]
  Ratio: 20000
[2]
  Ratio: >5300
MT4 [3]
  CC50: 310 µM
MT4 [4]
  CC50: > 80 µM

## C[C@@H]1NC(=O)[C@H](CCCN=C(N)N)NC(=O)[C@H](Cc2ccc(O)cc2)NC(=O)[C@@H]2CCCN2C(=O)[C@@H](CCCCN)NC(=O)[C@H](CCCCN)NC(=O)[C@H](CCCN=C(N)N)NC(=O)[C@H](Cc2ccc(O)cc2)NC(=O)[C@@H](NC(=O)[C@H](Cc2ccc3ccccc3c2)NC(=O)[C@H](CCCN=C(N)N)NC(=O)[C@@H](N)CCCN=C(N)N)CSSC[C@@H](C(=O)N[C@@H](CCCN=C(N)N)C(=O)O)NC1=O
[2]
  Ratio: 3300
MT4 [4]
  CC50: 55 µM

## C[C@@H]1NC(=O)[C@H](Cc2ccc(O)cc2)NC(=O)[C@@H]2CCCN2C(=O)[C@@H](CCCCN)NC(=O)[C@H](CCCCN)NC(=O)[C@H](CCCN=C(N)N)NC(=O)[C@H](Cc2ccc(O)cc2)NC(=O)[C@@H](NC(=O)[C@H](Cc2ccc3ccccc3c2)NC(=O)[C@H](CCCN=C(N)N)NC(=O)[C@@H](N)CCCN=C(N)N)CSSC[C@@H](C(=O)N[C@@H](CCCN=C(N)N)C(=O)O)NC(=O)[C@H](CCCNC(N)=O)NC1=O
[2]
  Ratio: >4800
MT4 [4]
  CC50: > 80 µM

## NCCCC[C@@H]1NC(=O)[C@H](CCCN=C(N)N)NC(=O)[C@H](Cc2ccc(O)cc2)NC(=O)[C@@H](NC(=O)[C@H](Cc2ccc3ccccc3c2)NC(=O)[C@H](CCCN=C(N)N)NC(=O)[C@@H](N)CCCN=C(N)N)CSSC[C@@H](C(=O)N[C@@H](CCCN=C(N)N)C(=O)O)NC(=O)[C@H](CCCNC(N)=O)NC(=O)[C@H](CCCN=C(N)N)NC(=O)[C@H](Cc2ccc(O)cc2)NC(=O)[C@@H]2CCCN2C(=O)[C@@H](CCCNC(N)=O)NC1=O
[1]
  Ratio: 69000
[2]
  Ratio: >20000
MT4 [3]
  CC50: 280 µM
MT4 [4]
  CC50: > 80 µM

## NCCCC[C@H]1NC(=O)[C@H](CCCNC(N)=O)NC(=O)[C@H](CCCN=C(N)N)NC(=O)[C@H](Cc2ccc(O)cc2)NC(=O)[C@@H](NC(=O)[C@H](Cc2ccc3ccccc3c2)NC(=O)[C@H](CCCN=C(N)N)NC(=O)[C@@H](N)CCCN=C(N)N)CSSC[C@@H](C(=O)N[C@@H](CCCN=C(N)N)C(=O)O)NC(=O)[C@H](CCCNC(N)=O)NC(=O)[C@H](CCCN=C(N)N)NC(=O)[C@H](Cc2ccc(O)cc2)NC(=O)[C@@H]2CCCN2C1=O
[1]
  Ratio: >16000
[2]
  Ratio: >5000
MT4 [3]
  CC50: 270 µM
MT4 [4]
  CC50: > 80 µM

## C[C@@H]1NC(=O)[C@@H]2CCCN2C(=O)[C@@H](CCCCN)NC(=O)[C@H](CCCCN)NC(=O)[C@H](CCCN=C(N)N)NC(=O)[C@H](Cc2ccc(O)cc2)NC(=O)[C@@H](NC(=O)[C@H](Cc2ccc3ccccc3c2)NC(=O)[C@H](CCCN=C(N)N)NC(=O)[C@@H](N)CCCN=C(N)N)CSSC[C@@H](C(=O)N[C@@H](CCCN=C(N)N)C(=O)O)NC(=O)[C@H](CCCNC(N)=O)NC(=O)[C@H](CCCN=C(N)N)NC1=O
[2]
  Ratio: >4500
MT4 [4]
  CC50: > 80 µM

## C[C@H]1NC(=O)[C@H](CCCCN)NC(=O)[C@H](CCCN=C(N)N)NC(=O)[C@H](Cc2ccc(O)cc2)NC(=O)[C@@H](NC(=O)[C@H](Cc2ccc3ccccc3c2)NC(=O)[C@H](CCCN=C(N)N)NC(=O)[C@@H](N)CCCN=C(N)N)CSSC[C@@H](C(=O)N[C@@H](CCCN=C(N)N)C(=O)O)NC(=O)[C@H](CCCNC(N)=O)NC(=O)[C@H](CCCN=C(N)N)NC(=O)[C@H](Cc2ccc(O)cc2)NC(=O)[C@@H]2CCCN2C1=O
[2]
  Ratio: >5200
MT4 [4]
  CC50: > 80 µM

## CC(N)C(=O)N[C@@H](CCCN=C(N)N)C(=O)N[C@@H](Cc1ccc2ccccc2c1)C(=O)N[C@H]1CSSC[C@@H](C(=O)N[C@@H](CCCN=C(N)N)C(=O)O)NC(=O)[C@H](CCCNC(N)=O)NC(=O)[C@H](CCCN=C(N)N)NC(=O)[C@H](Cc2ccc(O)cc2)NC(=O)[C@@H]2CCCN2C(=O)[C@@H](CCCCN)NC(=O)[C@H](CCCCN)NC(=O)[C@H](CCCN=C(N)N)NC(=O)[C@H](Cc2ccc(O)cc2)NC1=O (some centres undefined)
[2]
  Ratio: >750
MT4 [4]
  CC50: > 40 µM

## C[C@H](NC(=O)[C@@H]1CSSC[C@H](NC(=O)[C@H](Cc2ccc3ccccc3c2)NC(=O)[C@H](CCCN=C(N)N)NC(=O)[C@@H](N)CCCN=C(N)N)C(=O)N[C@@H](Cc2ccc(O)cc2)C(=O)N[C@@H](CCCN=C(N)N)C(=O)N[C@@H](CCCCN)C(=O)N[C@H](CCCCN)C(=O)N2CCC[C@H]2C(=O)N[C@@H](Cc2ccc(O)cc2)C(=O)N[C@@H](CCCN=C(N)N)C(=O)N[C@@H](CCCNC(N)=O)C(=O)N1)C(=O)O
[2]
  Ratio: >210
MT4 [4]
  CC50: > 80 µM

## C[C@@H]1NC(=O)[C@@H](CCCCN)NC(=O)[C@H](CCCCN)NC(=O)[C@H](CCCN=C(N)N)NC(=O)[C@H](Cc2ccc(O)cc2)NC(=O)[C@@H](NC(=O)[C@H](Cc2ccc3ccccc3c2)NC(=O)[C@H](CCCN=C(N)N)NC(=O)[C@@H](N)CCCN=C(N)N)CSSC[C@@H](C(=O)N[C@@H](CCCN=C(N)N)C(=O)O)NC(=O)[C@H](CCCNC(N)=O)NC(=O)[C@H](CCCN=C(N)N)NC(=O)[C@H](Cc2ccc(O)cc2)NC1=O (H-RR[2Nal]CYRK[dK]AYR[Cit]CR-OH; disulfide 4-13)
[2]
  Ratio: >4700
MT4 [4]
  CC50: > 80 µM
